# Laboratory results from patent US10780090B2, “Heteroaryl compounds useful as inhibitors of SUMO activating enzyme” (Millennium Pharmaceuticals, Inc., priority 2014, dated 2020).
# Target: recombinant human SAE enzyme (Homo sapiens (Human), UniProt Q9UBT2)
# Test: SAE HTRF enzyme assay
# Assay type: biochemical
# Conditions: for Percent Inhibition: Concentration 0.111 μM; for IC50: class symbols A/B/C
# Method: Example 215: SAE HTRF enzyme assay
# The SAE enzymatic reaction totals 50 μl and contains 50 mM HEPES Hemisodium (pH 7.5), 0.05% BSA, 5 mM MgCl2, 0.5 μM ATP, 250 μM GSH, 0.01 μM Ubc9-GST, 0.125 μM Sumo-Flag and 0.11 nM recombinant human SAE enzyme. The enzymatic reaction mixture, with and without inhibitor, Is incubated at 24° C. for 105 min in a 384-well plate before termination with […] of Stop/Detection buffer (0.1M HEPES Hemisodium pH 7.5, 0.05% Tween20, 20 mM EDTA, 410 mM KF, 0.53 nM Europium-Cryptate labeled monoclonal anti-Flag M2 Antibody (CisBio International) and 8.125 μg/ml PHYCOLINK goat anti-GST allophycocyanin (XL-APC) antibody (Prozyme)). After incubation for 2 hours at 24° C., quantification of FRET is performed on the Pherostar™ (BMG Labtech). Percentage inhibition values at a single concentration or enzyme inhibition (IC50) values are determined from those curves. One skilled in the art will appreciate that the values generated either as percentage inhibition at a single concentration or IC50 values are subject to experimental variation.
# Sequence of recombinant human SAE enzyme (Q9UBT2 whole entry): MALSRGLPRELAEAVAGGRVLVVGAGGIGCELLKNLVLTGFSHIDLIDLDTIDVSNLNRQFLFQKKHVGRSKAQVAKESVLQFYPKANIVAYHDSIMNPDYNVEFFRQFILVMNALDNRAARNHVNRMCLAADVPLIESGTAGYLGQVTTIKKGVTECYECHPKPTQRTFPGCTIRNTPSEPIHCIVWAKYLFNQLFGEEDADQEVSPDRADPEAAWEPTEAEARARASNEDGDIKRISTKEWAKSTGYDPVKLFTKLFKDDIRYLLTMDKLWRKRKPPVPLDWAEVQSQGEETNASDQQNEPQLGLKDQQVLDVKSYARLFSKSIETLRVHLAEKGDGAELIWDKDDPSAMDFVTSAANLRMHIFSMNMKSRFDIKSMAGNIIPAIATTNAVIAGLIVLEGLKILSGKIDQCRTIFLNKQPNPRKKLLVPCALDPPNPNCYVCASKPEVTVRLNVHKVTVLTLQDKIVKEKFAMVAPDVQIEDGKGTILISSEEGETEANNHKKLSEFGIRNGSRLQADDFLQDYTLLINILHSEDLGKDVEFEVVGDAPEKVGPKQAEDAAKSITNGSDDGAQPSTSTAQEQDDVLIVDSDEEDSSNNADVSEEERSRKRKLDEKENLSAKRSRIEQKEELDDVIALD
# Sequence of recombinant human SAE enzyme (Q9UBE0 whole entry partner): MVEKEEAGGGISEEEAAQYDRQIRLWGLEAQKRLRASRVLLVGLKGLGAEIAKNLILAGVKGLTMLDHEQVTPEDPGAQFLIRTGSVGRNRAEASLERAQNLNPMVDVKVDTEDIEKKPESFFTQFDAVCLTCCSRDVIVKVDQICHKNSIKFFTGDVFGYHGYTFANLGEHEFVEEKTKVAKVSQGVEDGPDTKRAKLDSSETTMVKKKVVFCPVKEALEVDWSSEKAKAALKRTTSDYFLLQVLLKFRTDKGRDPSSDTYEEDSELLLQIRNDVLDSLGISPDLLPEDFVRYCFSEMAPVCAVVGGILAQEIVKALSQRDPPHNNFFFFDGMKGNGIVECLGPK
SMILES,Percent Inhibition,IC50 [nM]
"NS(=O)(=O)OCC1CC(Nc2ncncc2C(=O)c2cc(C(O)(c3cccc(Cl)c3)C3CC3)cs2)CC1O (mixture of isomers) [I-50, [(1R,2S,4R)-4-{[5-({4-[(S)-(3-chlorophenyl)(cyclopropyl)hydroxymethyl]-2-thienyl}carbonyl)pyrimidin-4-yl]amino}-2-hydroxycyclopentyl]methyl sulfamate and [(1R,2S,4R)-4-{[5-({4-[(R)-(3-chlorophenyl)(cyclopropyl)hydroxymethyl]-2-thienyl}carbonyl)pyrimidin-4-yl]amino}-2-hydroxycyclopentyl]methyl sulfamate]",99,< 10
"C[C@](O)(c1csc(C(=O)c2cncnc2N[C@@H]2C[C@H](COS(N)(=O)=O)[C@@H](O)C2)c1)c1cccc(Br)n1 (mixture of isomers) [I-54, [(1R,2S,4R)-4-{[5-({4-[(1S)-1-(6-bromopyridin-2-yl)-1-hydroxyethyl]-2-thienyl}carbonyl)pyrimidin-4-yl]amino}-2-hydroxycyclopentyl]methyl sulfamate and [(1R,2S,4R)-4-{[5-({4-[(1R)-1-(6-bromopyridin-2-yl)-1-hydroxyethyl]-2-thienyl}carbonyl)pyrimidin-4-yl]amino}-2-hydroxycyclopentyl]methyl sulfamate]",99,< 10
"NS(=O)(=O)OC[C@H]1C[C@@H](Nc2ncncc2C(=O)c2cc([C@H](O)c3ccccc3)c(Cl)s2)C[C@@H]1O (mixture of isomers) [I-56, [(1R,2S,4R)-4-{[5-({5-chloro-4-[(R)-hydroxy(phenyl)methyl]-2-thienyl}carbonyl)pyrimidin-4-yl]amino}-2-hydroxycyclopentyl]methyl sulfamate and [(1R,2S,4R)-4-{[5-({5-chloro-4-[(S)-hydroxy(phenyl)methyl]-2-thienyl}carbonyl)pyrimidin-4-yl]amino}-2-hydroxycyclopentyl]methyl sulfamate]",98,< 10
"C[C@@](O)(c1ccccc1)c1coc(C(=O)c2cncnc2N[C@@H]2C[C@H](COS(N)(=O)=O)[C@@H](O)C2)c1.C[C@](O)(c1ccccc1)c1coc(C(=O)c2cncnc2N[C@@H]2C[C@H](COS(N)(=O)=O)[C@@H](O)C2)c1 (mixture of isomers) [I-58, {(1R,2S,4R)-2-hydroxy-4-[(5-{4-[(1S)-1-hydroxy-1-phenylethyl]-2-furoyl}pyrimidin-4-yl)amino]cyclopentyl}methyl sulfamate and {(1R,2S,4R)-2-hydroxy-4-[(5-{4-[(1R)-1-hydroxy-1-phenylethyl]-2-furoyl}pyrimidin-4-yl)amino]cyclopentyl}methyl sulfamate]",96,< 10
"COc1ccc(Cl)cc1[C@@H](O)c1cc(C(=O)c2cncnc2N[C@@H]2C[C@H](COS(N)(=O)=O)[C@@H](O)C2)sc1Cl (mixture of isomers) [I-63, [(1R,2S,4R)-4-{[5-({5-chloro-4-[(R)-(5-chloro-2-methoxyphenyl)(hydroxy)methyl]-2-thienyl}carbonyl)pyrimidin-4-yl]amino}-2-hydroxycyclopentyl]methyl sulfamate and [(1R,2S,4R)-4-{[5-({5-chloro-4-[(S)-(5-chloro-2-methoxyphenyl)(hydroxy)methyl]-2-thienyl}carbonyl)pyrimidin-4-yl]amino}-2-hydroxycyclopentyl]methyl sulfamate]",97,< 10
"NS(=O)(=O)OC[C@H]1C[C@@H](Nc2ncncc2C(=O)c2cc([C@]3(c4cccc(Cl)c4)CCO3)c(Cl)s2)C[C@@H]1O (mixture of isomers) [I-67, [(1R,2S,4R)-4-{[5-({5-chloro-4-[(2R)-2-(3-chlorophenyl)oxetan-2-yl]-2-thienyl}carbonyl)pyrimidin-4-yl]amino}-2-hydroxycyclopentyl]methyl sulfamate and [(1R,2S,4R)-4-{[5-({5-chloro-4-[(2S)-2-(3-chlorophenyl)oxetan-2-yl]-2-thienyl}carbonyl)pyrimidin-4-yl]amino}-2-hydroxycyclopentyl]methyl sulfamate]",99,< 10
"Cc1sc(C(=O)c2cncnc2NC2CC(O)C(COS(N)(=O)=O)C2)cc1[S+]([O-])c1ccccc1 (mixture of isomers) [I-68, [(1R,2S,4R)-2-hydroxy-4-{[5-({5-methyl-4-[(R)-phenylsulfinyl]-2-thienyl}carbonyl)pyrimidin-4-yl]amino}cyclopentyl]methyl sulfamate and [(1R,2S,4R)-2-hydroxy-4-{[5-({5-methyl-4-[(S)-phenylsulfinyl]-2-thienyl}carbonyl)pyrimidin-4-yl]amino}cyclopentyl]methyl sulfamate]",98,< 10
"COc1ccccc1[C@@H](O)c1cc(C(=O)c2cncnc2N[C@@H]2C[C@H](COS(N)(=O)=O)[C@@H](O)C2)sc1Cl (mixture of isomers) [I-85, [(1R,2S,4R)-4-{[5-({5-chloro-4-[(R)-hydroxy(2-methoxyphenyl)methyl]-2-thienyl}carbonyl)pyrimidin-4-yl]amino}-2-hydroxycyclopentyl]methyl sulfamate and [(1R,2S,4R)-4-{[5-({5-chloro-4-[(S)-hydroxy(2-methoxyphenyl)methyl]-2-thienyl}carbonyl)pyrimidin-4-yl]amino}-2-hydroxycyclopentyl]methyl sulfamate]",97,< 10
"NS(=O)(=O)OC[C@H]1C[C@@H](Nc2ncncc2C(=O)c2cc([C@@H](O)c3ccccc3Cl)c(Cl)s2)C[C@@H]1O (mixture of isomers) [I-86, [(1R,2S,4R)-4-{[5-({5-chloro-4-[(S)-(2-chlorophenyl)(hydroxy)methyl]-2-thienyl}carbonyl)pyrimidin-4-yl]amino}-2-hydroxycyclopentyl]methyl sulfamate and [(1R,2S,4R)-4-{[5-({5-chloro-4-[(R)-(2-chlorophenyl)(hydroxy)methyl]-2-thienyl}carbonyl)pyrimidin-4-yl]amino}-2-hydroxycyclopentyl]methyl sulfamate]",96,< 10
"CO[C@H](c1cccc(Cl)c1)c1cc(C(=O)c2cncnc2N[C@@H]2C[C@H](COS(N)(=O)=O)[C@@H](O)C2)sc1Cl (mixture of isomers) [I-90, [(1R,2S,4R)-4-{[5-({5-chloro-4-[(R)-(3-chlorophenyl)(methoxy)methyl]-2-thienyl}carbonyl)pyrimidin-4-yl]amino}-2-hydroxycyclopentyl]methyl sulfamate and [(1R,2S,4R)-4-{[5-({5-chloro-4-[(S)-(3-chlorophenyl)(methoxy)methyl]-2-thienyl}carbonyl)pyrimidin-4-yl]amino}-2-hydroxycyclopentyl]methyl sulfamate]",97,< 10
"CN[C@@H](c1cccc(Cl)c1)c1cc(C(=O)c2cncnc2N[C@@H]2C[C@H](COS(N)(=O)=O)[C@@H](O)C2)sc1Cl.CN[C@H](c1cccc(Cl)c1)c1cc(C(=O)c2cncnc2N[C@@H]2C[C@H](COS(N)(=O)=O)[C@@H](O)C2)sc1Cl (mixture of isomers) [I-95, [(1R,2S,4R)-4-{[5-({5-Chloro-4-[(S)-(3-chlorophenyl)(methylamino)methyl]-2-thienyl}carbonyl)pyrimidin-4-yl]amino}-2-hydroxycyclopentyl]methyl sulfamate and [(1R,2S,4R)-4 {[5-({5-Chloro-4-[(R)-(3-chlorophenyl)(methylamino)methyl]-2-thienyl}carbonyl)pyrimidin-4-yl]amino}-2-hydroxycyclopentyl]methyl sulfamate]",97,< 10
"C[C@@](O)(c1cccc(Cl)c1)c1cc(C(=O)c2cncnc2N[C@@H]2C[C@H](COS(N)(=O)=O)[C@@H](O)C2)sc1Cl (mixture of isomers) [I-102, [(1R,2S,4R)-4-{[5-({5-Chloro-4-[(1S)-1-(3-chlorophenyl)-1-hydroxyethyl]-2-thienyl}carbonyl)pyrimidin-4-yl]amino}-2-hydroxycyclopentyl]methyl sulfamate and [(1R,2S,4R)-4-{[5-({5-Chloro-4-[(1R)-1-(3-chlorophenyl)-1-hydroxyethyl]-2-thienyl}carbonyl)pyrimidin-4 yl]amino}-2-hydroxycyclopentyl]methyl sulfamate]",94,< 10
"NS(=O)(=O)OC[C@H]1C[C@@H](Nc2ncncc2C(=O)c2cc([C@H](O)c3ccc(Cl)s3)c(Cl)s2)C[C@@H]1O (mixture of isomers) [I-103, [(1R,2S,4R)-4-{[5-({5-chloro-4-[(S)-(5-chloro-2-thienyl)(hydroxy)methyl]-2-thienyl}carbonyl)pyrimidin-4-yl]amino}-2-hydroxycyclopentyl]methyl sulfamate and [(1R,2S,4R)-4-{[5-({5-chloro-4-[(R)-(5-chloro-2-thienyl)(hydroxy)methyl]-2-thienyl}carbonyl)pyrimidin-4-yl]amino}-2-hydroxycyclopentyl]methyl sulfamate]",96,< 10
